Data as given in patent publication US9233111B2, “Pyrrolo pyrimidine derivatives” (NOVARTIS AG, priority 2011, dated 2016).

Biological target: full-length human recombinant BTK (Homo sapiens (Human), UniProt Q06187)
Assay: Inhibition of Btk enzymatic activity (biochemical enzyme assay, Caliper)
Settings: 30° C., 60 minutes
Description: The inhibitory activity of the present compounds against Btk was assessed in a biochemical enzyme assay. Assay plates in 384 well format were prepared with 8-point serial dilutions for the test compounds on a Thermo CatX workstation equipped with a Innovadyne Nanodrop Express. The assay plates were prepared by addition of 50 nl per well of compound solution in 90% DMSO. The kinase reactions were started by stepwise addition of 4.5 μl per well of peptide/ATP-solution (4 μM FITC-Ahx-[…]-NH2, 164 μM ATP) in kinase buffer (50 mM HEPES, pH 7.5, 1 mM DTT, 0.02% Tween20, 0.02% BSA, 0.6% DMSO, 10 mM beta-glycerophosphate, and 10 μM sodium orthovanadate, 18 mM MgCl2, 1 mM MnCl2) and 4.5 μl per well of enzyme solution (6.4 nM full-length human recombinant BTK) in kinase buffer. Kinase reactions were incubated at 30° C. for 60 minutes and subsequently terminated by addition of 16 μl per well of stop solution (100 mM HEPES pH 7.5, 5% DMSO, 0.1% Caliper coating reagent, 10 mM EDTA, and 0.015% Brij35). Kinase reactions were analyzed on a Caliper LC3000 workstation by separating phosphorylated and unphosphorylated peptides and kinase activities were calculated from the amounts of newly formed phospho-peptide. Inhibition data were calculated by comparison to control reactions without enzyme (100% inhibition) and without inhibitors (0% inhibition). The concentration of inhibitor required for 50% inhibition (IC50) was calculated from the inhibition in response to inhibitor concentrations.

Chain of full-length human recombinant BTK (Q06187 whole entry): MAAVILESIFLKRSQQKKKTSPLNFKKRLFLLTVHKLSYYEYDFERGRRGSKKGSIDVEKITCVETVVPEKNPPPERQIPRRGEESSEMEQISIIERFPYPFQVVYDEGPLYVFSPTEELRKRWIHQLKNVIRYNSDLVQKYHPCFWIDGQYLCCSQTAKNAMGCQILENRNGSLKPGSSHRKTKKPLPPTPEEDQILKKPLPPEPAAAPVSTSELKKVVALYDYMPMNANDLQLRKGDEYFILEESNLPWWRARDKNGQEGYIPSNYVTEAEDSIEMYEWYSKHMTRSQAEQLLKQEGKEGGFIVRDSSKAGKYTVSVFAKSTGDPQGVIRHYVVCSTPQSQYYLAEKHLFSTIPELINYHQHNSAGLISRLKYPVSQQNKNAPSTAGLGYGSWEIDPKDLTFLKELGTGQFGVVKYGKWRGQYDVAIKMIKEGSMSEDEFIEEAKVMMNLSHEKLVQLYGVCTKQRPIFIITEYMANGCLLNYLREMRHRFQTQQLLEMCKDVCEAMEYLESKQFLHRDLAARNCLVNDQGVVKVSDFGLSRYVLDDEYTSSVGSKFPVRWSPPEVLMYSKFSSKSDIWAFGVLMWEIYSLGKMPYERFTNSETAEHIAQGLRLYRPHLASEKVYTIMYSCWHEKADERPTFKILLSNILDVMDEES

| IC50 | Compound |
| --- | --- |
| 64 nM | Cc1c(NC(=O)c2ccc(C(C)(C)C)cc2)cccc1-c1ncnc2[nH]c(C3=CCS(=O)(=O)CC3)cc12 [Example 53, 4-tert-Butyl-N-{3-[6-(3,6-dihydro-1,1-dioxido-2H-thiopyran-4-yl)-7H-pyrrolo[2,3-d]pyrimidin-4-yl]-2-methyl-phenyl}-benzamide] |
| 8 nM | Cc1c(NC(=O)c2ccc(C(C)(C)O)cc2F)cc(F)cc1-c1ncnc2[nH]c(C3=CCOCC3)cc12 [Example 22, N-{3-[6-(3,6-Dihydro-2H-pyran-4-yl)-7H-pyrrolo[2,3-d]pyrimidin-4-yl]-5-fluoro-2-methyl-phenyl}-2-fluoro-4-(1-hydroxy-1-methyl-ethyl)-benzamide] |
| 19 nM | Cc1c(NC(=O)c2ccc(C(C)(C)C)cc2)cc(F)cc1-c1ncnc2[nH]c(C3=CCNCC3)cc12 [Example 40, 4-tert-Butyl-N-{5-fluoro-2-methyl-3-[6-(1,2,3,6-tetrahydro-pyridin-4-yl)-7H-pyrrolo[2,3-d]pyrimidin-4-yl]-phenyl}-benzamide] |
| 3 nM | Cc1c(NC(=O)c2ccc(N3CCCCC3)cc2)cc(F)cc1-c1ncnc2[nH]c(C3=CCN(C(=O)N(C)C)CC3)cc12 [Example 7, 4-{4-[5-Fluoro-2-methyl-3-(4-piperidin-1-yl-benzoylamino)-phenyl]-7H-pyrrolo[2,3-d]pyrimidin-6-yl}-3,6-dihydro-2H-pyridine-1-carboxylic acid dimethylamide] |
| 6 nM | Cc1c(NC(=O)c2ccc(C(C)(O)C(F)(F)F)cc2)cc(F)cc1-c1ncnc2[nH]c(C3=CCN(C(=O)N(C)C)CC3)cc12 (stereo not drawn) [Example 18, 4-(4-{5-Fluoro-2-methyl-3-[4-(2,2,2-trifluoro-1-hydroxy-1-methyl-ethyl)-benzoylamino]-phenyl}-7H-pyrrolo[2,3-d]pyrimidin-6-yl)-3,6-dihydro-2H-pyridine-1-carboxylic acid dimethylamide] |
| 23 nM | CC(=O)c1ccc(C(=O)Nc2cc(F)cc(-c3ncnc4[nH]c(C5=CCN(C(=O)N(C)C)CC5)cc34)c2C)cc1 [Example 19, 4-{4-[3-(4-Acetyl-benzoylamino)-5-fluoro-2-methyl-phenyl]-7H-pyrrolo[2,3-d]pyrimidin-6-yl}-3,6-dihydro-2H-pyridine-1-carboxylic acid dimethylamide] |
| 4 nM | COCC(C)(C)c1ccc(C(=O)Nc2cc(F)cc(-c3ncnc4[nH]c(C5=CCN(C(=O)N(C)C)CC5)cc34)c2C)cc1 [Example 12, 4-(4-{5-Fluoro-3-[4-(2-methoxy-1,1-dimethyl-ethyl)-benzoylamino]-2-methyl-phenyl}-7H-pyrrolo[2,3-d]pyrimidin-6-yl)-3,6-dihydro-2H-pyridine-1-carboxylic acid dimethylamide] |
| 3 nM | Cc1c(NC(=O)c2ccc3c(C)c[nH]c3c2)cc(F)cc1-c1ncnc2[nH]c(C3=CCN(C(=O)N(C)C)CC3)cc12 [Example 5, 3-Methyl-1H-indole-6-carboxylic acid {3-[6-(1-dimethylcarbamoyl-1,2,3,6-tetrahydro-pyridin-4-yl)-7H-pyrrolo[2,3-d]pyrimidin-4-yl]-5-fluoro-2-methyl-phenyl}-amide] |
| 3 nM | CC(=O)OCC(=O)N1CC=C(c2cc3c(-c4cc(F)cc(NC(=O)c5ccc(C6CC6)cc5)c4C)ncnc3[nH]2)CC1 [Example 31, Acetic acid 2-(4-{4-[3-(4 cyclopropyl-benzoylamino)-5-fluoro-2-methyl-phenyl]-7H-pyrrolo[2,3-d]pyrimidin-6-yl}-3,6-dihydro-2H-pyridin-1-yl)-2-oxo-ethyl ester] |
| 17 nM | CN(C)C(=O)N1CC=C(c2cc3c(-c4cccc(N5CCc6cc(C7CC7)ccc6C5=O)c4CO)ncnc3[nH]2)CC1 [Example 46, 4-{4-[3-(6-Cyclopropyl-1-oxo-3,4-dihydro-1H-isoquinolin-2-yl)-2-hydroxymethyl-phenyl]-7H-pyrrolo[2,3-d]pyrimidin-6-yl}-3,6-dihydro-2H-pyridine-1-carboxylic acid dimethylamide] |
| 6 nM | CN(C)C(=O)N1CC=C(c2cc3c(-c4ccc(F)c(NC(=O)c5ccc(C6CC6)cc5)c4)ncnc3[nH]2)CC1 [Example 20, 4-{4-[3-(4-Cyclopropyl-benzoylamino)-4-fluoro-phenyl]-7H-pyrrolo[2,3-d]pyrimidin-6-yl}-3,6-dihydro-2H-pyridine-1-carboxylic acid dimethylamide] |
| 9 nM | Cc1c(NC(=O)c2ccc(C(C)(C)C)cc2)cccc1-c1ncnc2[nH]c(C3=CCC4(CC3)OCCO4)cc12 [Example 65, 4-tert-Butyl-N-{3-[6-(1,4-dioxa-spiro[4.5]dec-7-en-8-yl)-7H-pyrrolo[2,3-d]pyrimidin-4-yl]-2-methyl-phenyl}-benzamide] |
| 12 nM | Cc1c(NC(=O)c2ccc(C(C)(C)C)cc2)cccc1-c1ncnc2[nH]c(C3=CCC(O)CC3)cc12 (stereo not drawn) [Example 66, 4-tert-Butyl-N-{3-[6 (4 hydroxy-cyclohex-1-enyl)-7H-pyrrolo[2,3-d]pyrimidin-4-yl]-2-methyl-phenyl}-benzamide] |
| 34 nM | Cc1c(NC(=O)c2ccc(S(F)(F)(F)(F)F)cc2)cc(F)cc1-c1ncnc2[nH]c(C3=CCN(C(=O)N4CCCC4)CC3)cc12 [Example 34, N-(5-Fluoro-2-methyl-3-{6-[1-(pyrrolidine-1-carbonyl)-1,2,3,6-tetrahydro-pyridin-4-yl]-7H-pyrrolo[2,3-d]pyrimidin-4-yl}-phenyl)-4-(pentafluoro-sulfanyl)-benzamide] |
| 7 nM | CC(C)(C)c1ccc(C(=O)Nc2cccc(-c3ncnc4[nH]c(C5=CCOCC5)cc34)c2CO)cc1 [Example 48, 4-tert-Butyl-N-{3-[6-(3,6-dihydro-2H-pyran-4-yl)-7H-pyrrolo[2,3-d]pyrimidin-4-yl]-2-hydroxymethyl-phenyl}-benzamide] |
| 8 nM | CN(C)C(=O)N1CC=C(c2cc3c(-c4cccc(N5CCc6cc(C(C)(C)C)ccc6C5=O)c4CO)ncnc3[nH]2)CC1 [Example 45, 4-{4-[3-(6-tert-Butyl-1-oxo-3,4-dihydro-1H-isoquinolin-2-yl)-2-hydroxymethyl-phenyl]-7H-pyrrolo[2,3-d]pyrimidin-6-yl}-3,6-dihydro-2H-pyridine-1-carboxylic acid dimethylamide] |
| 24 nM | Cc1c(NC(=O)c2ccc(C(C)(C)C)cc2)cccc1-c1ncnc2[nH]c(C3=CC[S+]([O-])CC3)cc12 (stereo not drawn) [Example 52, 4-tert-Butyl-N-{2-methyl-3-[6-(3,6-dihydro-1-oxido-2H-thiopyran-4-yl)-7H-pyrrolo[2,3-d]pyrimidin-4-yl]-phenyl}-benzamide] |
| 5 nM | Cc1c(NC(=O)c2ccc(S(F)(F)(F)(F)F)cc2)cc(F)cc1-c1ncnc2[nH]c(C3=CCN(C(=O)N(C)C)CC3)cc12 [Example 11, 4-(4-{5-Fluoro-3-[4-pentafluorothio-benzoylamino]-2-methyl-phenyl}-7H-pyrrolo[2,3-d]pyrimidin-6-yl)-3,6-dihydro-2H-pyridine-1-carboxylic acid dimethylamide] |
| 4 nM | CC(C)(C)c1ccc(C(=O)Nc2cccc(-c3ncnc4[nH]c(C5=CCC(O)CC5)cc34)c2CO)cc1 (stereo not drawn) [Example 55, 4-tert-Butyl-N-{3-[6 (4 hydroxy-cyclohex-1-enyl)-7H-pyrrolo[2,3-d]pyrimidin-4-yl]-2-hydroxymethyl-phenyl}-benzamide] |
| 2 nM | Cc1c(NC(=O)c2ccc(C(C)(C)C)cc2)cc(F)cc1-c1ncnc2[nH]c(C3=CC[S+]([O-])CC3)cc12 (stereo not drawn) [Example 25, 4-tert-Butyl-N-{5-fluoro-2-methyl-3-[6-(3,6-dihydro-1-oxido-2H-thiopyran-4-yl)-7H-pyrrolo[2,3-d]pyrimidin-4-yl]-phenyl}-benzamide] |
| 1 nM | Cc1c(NC(=O)c2ccc(C3(F)CC3)cc2)cc(F)cc1-c1ncnc2[nH]c(C3=CCN(C(=O)N(C)C)CC3)cc12 [Example 1, 4-(4-{5-Fluoro-3-[4-(1-fluoro-cyclopropyl)-benzoylamino]-2-methyl-phenyl}-7H-pyrrolo[2′3-d]pyrimidin-6-yl)-3,6-dihydro-2H-pyridine-1-carboxylic acid dimethylamide] |
| 47 nM | Cc1c(NC(=O)c2ccc(N(C)C)cc2)cc(F)cc1-c1ncnc2[nH]c(C3=CCOCC3)cc12 [Example 50, N-{3-[6-(3,6-Dihydro-2H-pyran-4-yl)-7H-pyrrolo[2,3-d]pyrimidin-4-yl]-5-fluoro-2-methyl-phenyl}-4-dimethylamino-benzamide] |

| Compound | IC50 |
| --- | --- |
| Cc1c(NC(=O)N2CC(OC(C)(C)C)C2)cc(F)cc1-c1ncnc2[nH]c(C3=CCOCC3)cc12 [Example 61, 3-tert-Butoxy-azetidine-1-carboxylic acid {3-[6-(3,6-dihydro-2H-pyran-4-yl)-7H-pyrrolo[2,3-d]pyrimidin-4-yl]-5-fluoro-2-methyl-phenyl}-amide] | 6 nM |
| Cc1c(NC(=O)N2CC(OC(C)(C)C)C2)cc(F)cc1-c1ncnc2[nH]c(C3=CCN(C(=O)N(C)C)CC3)cc12 [Example 57, 4-(4-{3-[(3-tert-Butoxy-azetidine-1-carbonyl)-amino]-5-fluoro-2-methyl-phenyl}-7H-pyrrolo[2,3-d]pyrimidin-6-yl)-3,6-dihydro-2H-pyridine-1-carboxylic acid dimethylamide] | 7 nM |
